Test results reported in PMC11969009 (Nature Communications, 2025).
Values joined by “and” are separate entries in the source; they are usually repeats but may differ in a detail not shown here. Equal values may be shown once. Read-outs that look alike come from different tables or passages of the source.

Tests used:
CYP2C8 = CYP2C8 (Homo sapiens, UniProt P10632); settings: microsomes
[1] = tested on: SARS-CoV-2 clinical isolate VIC001; test: microbe, parasite or virus in culture; format: cell-based; settings: for EC50: Severe acute respiratory syndrome coronavirus 2, Vero
SARS-CoV-2 P2 strain = tested on: SARS-CoV-2 P2 strain; parameters: species or system C57BL/6 (WT) mice; settings: mouse, in vivo
SARS-CoV-2 PLpro [2] = molecular target: T1, SARS-CoV-2 PLpro (Severe acute respiratory syndrome coronavirus 2, UniProt P0DTD1); test: biochemical; parameters: inhibition of SARS-CoV-2 PLpro, UbRh dose-response replicate value: unit: %; settings: for IC50: IC50 (UbRh) SARS-CoV-2 PLpro
SARS-CoV-2 PLpro [3] = molecular target: T1, SARS-CoV-2 PLpro; test: cell-based; format: cell-based
SARS-CoV-2 PLpro [4] = molecular target: T1, SARS-CoV-2 PLpro
CYP2B6 = CYP2B6 (Homo sapiens, UniProt P20813); test: biochemical
CYP3A4/5 [5] = settings: human, microsomes, pH 7.4
CYP3A4/5 [6] = settings: human, microsomes
CYP3A4/5 [7] = test: in vitro; settings: human, microsomes, pH 7.4, CYP3A4/5 IC50
CYP3A4/5 [8] = test: in vitro; settings: human, microsomes
[9] = read-out: Antiviral EC50 (plaque assay)

Chain of CYP2C8 (P10632 whole entry): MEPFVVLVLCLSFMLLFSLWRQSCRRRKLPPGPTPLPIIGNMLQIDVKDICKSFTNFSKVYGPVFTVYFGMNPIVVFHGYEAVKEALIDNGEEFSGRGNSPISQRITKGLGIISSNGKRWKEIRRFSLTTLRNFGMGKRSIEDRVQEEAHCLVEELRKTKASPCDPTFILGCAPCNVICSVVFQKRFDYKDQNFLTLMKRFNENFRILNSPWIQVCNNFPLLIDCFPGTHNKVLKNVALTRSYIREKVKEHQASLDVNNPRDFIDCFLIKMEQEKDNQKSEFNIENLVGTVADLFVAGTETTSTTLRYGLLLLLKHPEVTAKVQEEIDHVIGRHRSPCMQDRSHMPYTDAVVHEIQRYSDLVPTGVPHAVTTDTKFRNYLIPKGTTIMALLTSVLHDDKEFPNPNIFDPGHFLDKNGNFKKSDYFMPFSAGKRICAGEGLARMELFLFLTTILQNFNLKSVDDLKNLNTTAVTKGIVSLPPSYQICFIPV
Chain of CYP2B6 (P20813 whole entry): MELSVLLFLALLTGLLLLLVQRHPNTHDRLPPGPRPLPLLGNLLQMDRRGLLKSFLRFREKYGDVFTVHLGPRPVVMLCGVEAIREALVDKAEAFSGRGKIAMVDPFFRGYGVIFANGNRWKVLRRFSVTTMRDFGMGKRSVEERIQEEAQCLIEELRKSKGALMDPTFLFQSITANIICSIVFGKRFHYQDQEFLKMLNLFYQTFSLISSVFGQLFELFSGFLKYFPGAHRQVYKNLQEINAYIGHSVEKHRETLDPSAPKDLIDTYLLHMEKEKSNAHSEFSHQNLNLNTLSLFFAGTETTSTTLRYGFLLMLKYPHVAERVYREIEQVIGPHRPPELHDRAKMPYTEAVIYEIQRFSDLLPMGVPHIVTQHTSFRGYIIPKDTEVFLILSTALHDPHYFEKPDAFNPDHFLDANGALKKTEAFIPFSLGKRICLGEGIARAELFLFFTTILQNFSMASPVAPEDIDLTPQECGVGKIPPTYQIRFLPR

quercitin [reference compound]
IC50 (CYP2C8): 2300 nM

CC(C)(C)[C@H](NC(=O)C(F)(F)F)C(=O)N1C[C@H]2[C@@H]([C@H]1C(=O)N[C@H](C#N)C[C@@H]1CCNC1=O)C2(C)C [Nirmatrelvir, nirmatrelvir, reference compound]
EC50 [1, 9]: > 2000 nM
EC50 ([1]; read-out: Antiviral EC50 (plaque assay) with Pgp inhibitor): 530 nM
Ext Data Fig 2f dose response (0 µM = 100) ([1]; concentration 0.01 µM): 108.0460 and 101.2658 and 103.7975 and 95.0617 and 93.8272 and 95.6522
Ext Data Fig 2f dose response (0 µM = 100) ([1]; concentration 0.02 µM): 90.8046 and 108.8608 and 111.3924 and 104.9383 and 98.7654 and 104.3478
Ext Data Fig 2f dose response (0 µM = 100) ([1]; concentration 0.04 µM): 97.7011 and 96.2025 and 105.0633 and 97.5309 and 90.1235 and 85.5072
Ext Data Fig 2f dose response (0 µM = 100) ([1]; concentration 0.08 µM): 93.1034 and 89.8734 and 106.3291 and 109.8765 and 100.0000 and 102.8986
Ext Data Fig 2f dose response (0 µM = 100) ([1]; concentration 0.3 µM): 104.5977 and 108.8608 and 102.5316 and 58.0247 and 83.9506 and 71.0145
antiviral activity (lung viral burden), mild model (SARS-CoV-2 P2 strain): no antiviral activity

CO/N=C(/c1ccc2cc(OC)ccc2c1)C1CCCN(C2CCCC2)C1 (stereo not drawn) [WEHI-P2]
IC50 (UbRh) SARS-CoV-2 PLpro (SARS-CoV-2 PLpro [2]): submicromolar
inhibition of SARS-CoV-2 PLpro, UbRh dose-response replicate value (SARS-CoV-2 PLpro [2]; Conc 0.00498 µM): -15.8303 and -11.7404 and -10.1452 and -13.4396 and 0.4248 and 3.42 and -8.071 and -0.3979
inhibition of SARS-CoV-2 PLpro, UbRh dose-response replicate value (SARS-CoV-2 PLpro [2]; Conc 0.0149 µM): -13.9221 and -7.6283 and -8.496 and -15.6937 and -2.169 and 1.092 and -11.0387 and -1.093
inhibition of SARS-CoV-2 PLpro, UbRh dose-response replicate value (SARS-CoV-2 PLpro [2]; Conc 0.0448 µM): -10.8825 and -7.692 and -10.0063 and -17.0131 and 5.235 and 6.569 and -0.8163 and 5.0409
inhibition of SARS-CoV-2 PLpro, UbRh dose-response replicate value (SARS-CoV-2 PLpro [2]; Conc 3.63 µM): 108.558 and 106.946 and 112.788 and 102.006 and 101.573 and 101.518 and 102.655
inhibition at 3.63 µM (SARS-CoV-2 PLpro [2]; Conc 3.63 µM, read-out: inhibition of SARS-CoV-2 PLpro, UbRh dose-response replicate value): 110%
inhibition of SARS-CoV-2 PLpro, UbRh dose-response replicate value (SARS-CoV-2 PLpro [2]; Conc 98 µM): 126.525 and 125.26 and 122.237 and 129.703 and 110.886 and 110.306 and 111.038 and 109.523
inhibition of SARS-CoV-2 PLpro, UbRh dose-response replicate value (SARS-CoV-2 PLpro [2]; Conc […]): 108.844
IC50 (SARS-CoV-2 PLpro [2]): 397 nM
IC50 (SARS-CoV-2 PLpro [2]; Supplementary Fig. 2b): 645 nM
inhibition at […] (SARS-CoV-2 PLpro [2]; read-out: inhibition of SARS-CoV-2 PLpro, UbRh dose-response replicate value): 127% and 123% and 74.5%
EC50 (SARS-CoV-2 PLpro [3]): 11000 nM
FRET EC50 (cellular) (SARS-CoV-2 PLpro [3]): micromolar cellular activity
EC50 [1, 9]: > 2000 nM
Molar Mass (kDa) (SARS-CoV-2 PLpro [4]): 34.0141 kDa and 34.3179 kDa and 34.334 kDa
observed molar mass of PLpro (SEC-MALS) (SARS-CoV-2 PLpro [4]): 34.2 kDa

CC(C)(c1ccccc1)N1CCCCC1 [2-phenyl-2-(1-piperidinyl) propane, reference compound]
IC50 (CYP2B6): 8900 nM

CC(=O)N1CCN(c2ccc(OCC3COC(Cn4ccnc4)(c4ccc(Cl)cc4Cl)O3)cc2)CC1 (stereo not drawn) [Ketoconazole, reference compound]
IC50 (CYP3A4/5 [5]): 11 nM
Fold Shift IC50 (-NADPH) / IC50 (+NADPH) (CYP3A4/5 [6]): 0.68
IC50 (CYP3A4/5 [6]): 8.4 nM
IC50 (CYP3A4/5 [7]): 10 nM
IC50 shift (CYP3A4/5 [8]; Fold Shift IC50 (-NADPH) / IC50 (+NADPH)): 0.8
IC50 (CYP3A4/5 [8]; Time dependent CYP3A4/5 IC50 + NADPH): 16 nM
IC50 (CYP3A4/5 [8]; Time dependent CYP3A4/5 IC50 - NADPH): 13 nM
